Assay results taken from patent US8815875B2 (Merck Sharp & Dohme Corp., priority 2008, dated 2014).

Target: FABP4 (Homo sapiens, UniProt P15090)
Assay: TdF (Temperature Dependence Fluorescence) assay, thermal shift, FABP4
Type: binding
Excerpt: TdF (Temperature Dependence Fluorescence) Assay for FABP3 and FABP4
The TdF assay was mainly conducted in the 96-well based CHROMO-4 real time fluorescence plate reader (BioRad). The Sypro Orange (Sigma-Aldrich), environmentally sensitive fluorescence dye, was used to monitor the protein folding-unfolding transition. Protein-ligand binding was gauged by the change (or shift) in the unfolding transition temperature (ΔTm) acquired at protein alone with respect to protein in the presence of ligand of interest.
The compound of interest was first prepared in DMSO stock (typical concentration: 10 mM). […] Final percentage of DMSO resided in the sample was 2%. The sample plate was heated from 30° C. to 90° C. with thermal ramping rate of 1° C./min. The fluorescence signals were acquired with excitation and emission wavelengths centered at 490 and 560 nm respectively. The instrument thermal stability was ±0.2° C.
Theoretical basis for TdF-based ligand binding affinity constant
In brief, the binding constant of the ligand at the Tm is expressed as below:
[formula] where To is the midpoint of unfolding for unliganded protein and Tm is the midpoint of unfolding in presence of ligand. [LTm] is free ligand at Tm. The ΔHu and ΔCpu are the enthalpy of unfolding and heat capacity change of unfolding for the protein respectively.
The nonlinear regression fitting in general readily reaches convergence by properly constraining the initial values for the fitting parameters (e.g. the initial “guess” for the ΔHu was constrained to 120 kcal/mol; initial Yn and mn were set to 1 and zero to best represent the melting curve along the low temperature region; negative slope of −0.5 was initially chosen for mu; initial Tm was also constrained to 50° C.).
[formula] (see Brandts et al and Mayhood et al, shown above) where ΔHL (T) is the van't Hoff enthalpy of ligand binding at temperature T and ΔCpL is the heat capacity upon ligand binding. For simplicity, the ΔCpL and ΔHL (T) were set to zero and −7 kcal/mol respectively. […] TdCD (Temperature-dependent Circular Dichroism) Assay for FABP3/4/5

Sequence of FABP4 (P15090 whole entry, species assumed): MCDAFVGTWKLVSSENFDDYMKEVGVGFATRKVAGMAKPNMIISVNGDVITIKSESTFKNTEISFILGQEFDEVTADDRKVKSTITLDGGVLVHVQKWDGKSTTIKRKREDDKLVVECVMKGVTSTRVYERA

| SMILES | FABP4 TdF Kd | Kd |
| --- | --- | --- |
| O=c1cc(COc2cccc(Cl)c2[N+](=O)[O-])[nH]c2nc(-c3ccccc3)nn12 [1-134] | B (0.5 ≦ B < 0.001 μM) | – |
| O=c1cc(COC2CCCCC2O)[nH]c2nc(-c3ccccc3)nn12 (stereo not drawn) [1-135] | – | > 500 nM |
| Nc1c(Cl)cccc1OCc1cc(=O)n2nc(-c3ccccc3)nc2[nH]1 [1-136] | B (0.5 ≦ B < 0.001 μM) | – |
| O=c1cc(CN2CCCC2Cc2ccccn2)[nH]c2nc(-c3ccccc3)nn12 (stereo not drawn) [1-139] | – | > 500 nM |
| Cc1ccc(F)c2ccn(Cc3cc(=O)n4nc(-c5ccccc5)nc4[nH]3)c12 [1-141] | – | > 500 nM |
| Cc1cn(Cc2cc(=O)n3nc(-c4ccccc4)nc3[nH]2)c2cccc(Cl)c12 [1-142] | B (0.5 ≦ B < 0.001 μM) | – |
| CCCCc1cn(Cc2cc(=O)n3nc(-c4ccccc4)nc3[nH]2)c2cccc(Cl)c12 [1-143] | B (0.5 ≦ B < 0.001 μM) | – |
| Cn1cc(Br)c(NCc2cc(=O)n3nc(-c4ccccc4)nc3[nH]2)n1 [1-146] | – | > 500 nM |
| CC1(C)CCC(OCc2cc(=O)n3nc(-c4ccccc4)nc3[nH]2)CC1 [1-147] | B (0.5 ≦ B < 0.001 μM) | – |
| O=c1cc(COc2cccnc2Br)[nH]c2nc(-c3ccccc3)nn12 [1-148] | – | > 500 nM |
| Cc1cccc2c1OCCN2Cc1cc(=O)n2nc(-c3ccccc3)nc2[nH]1 [1-149] | B (0.5 ≦ B < 0.001 μM) | – |
| CC1(OCc2cc(=O)n3nc(-c4ccccc4)nc3[nH]2)CCCCC1 [1-150] | B (0.5 ≦ B < 0.001 μM) | – |
| Cn1nc(C2CC2)cc1NCc1cc(=O)n2nc(-c3ccccc3)nc2[nH]1 [1-151] | – | > 500 nM |
| COC(=O)C1(NCc2cc(=O)n3nc(-c4ccccc4)nc3[nH]2)CCc2ccc(Br)cc2C1 (stereo not drawn) [1-155] | – | > 500 nM |
| Cc1c(Cl)cccc1OCc1[nH]c2nc(-c3ccccc3)nn2c(=O)c1Br [2-1] | B (0.5 ≦ B < 0.001 μM) | – |
| CCc1ccc(OCc2[nH]c3nc(-c4ccccc4)nn3c(=O)c2Br)cc1 [2-2] | – | > 500 nM |

| SMILES | FABP4 TdF Kd | Kd |
| --- | --- | --- |
| Cc1c(Cl)cccc1OCc1[nH]c2nc(-c3ccccc3)nn2c(=O)c1Cl [3-1] | B (0.5 ≦ B < 0.001 μM) | – |
| Cc1c(Cl)cccc1NCc1cc(=O)n2ncnc2[nH]1 [4-2] | – | > 500 nM |
| CCc1ccc(NCc2cc(=O)n3ncnc3[nH]2)cc1 [4-3] | – | > 500 nM |
| CCc1ccc(NCc2cc(=O)n3nc(C(F)(F)F)nc3[nH]2)cc1 [5-2] | – | > 500 nM |
| O=c1cc(COc2cccc(C(F)(F)F)c2)[nH]c2nc(C(F)(F)F)nn12 [5-3] | – | > 500 nM |
| Cc1ccc(OCc2cc(=O)n3nc(C(F)(F)F)nc3[nH]2)cc1C [5-4] | – | > 500 nM |
| O=c1cc(CNc2ccc(F)c(F)c2)[nH]c2nc(C(F)(F)F)nn12 [5-5] | – | > 500 nM |
| COc1ccc(Cl)cc1NCc1cc(=O)n2nc(C(F)(F)F)nc2[nH]1 [5-6] | – | > 500 nM |
| CCc1ccc(NCc2cc(=O)n3nc(C)nc3[nH]2)cc1 [5-7] | – | > 500 nM |
| CCc1ccc(NCc2cc(=O)n3nc(CC)nc3[nH]2)cc1 [5-8] | – | > 500 nM |
| CCc1ccc(NCc2cc(=O)n3nc(C4CC4)nc3[nH]2)cc1 [5-9] | – | > 500 nM |
| CC(C)c1ccc(NCc2cc(=O)n3nc(-c4ccccc4)nc3[nH]2)cc1 [6-1] | – | > 500 nM |
| CCOc1ccc(NCc2cc(=O)n3nc(-c4ccccc4)nc3[nH]2)cc1 [6-2] | – | > 500 nM |
| COc1cc2c(cc1OC)CN(Cc1cc(=O)n3nc(-c4ccccc4)nc3[nH]1)C2 [6-5] | – | > 500 nM |
| CCc1ccc(OCc2cc(=O)n3ncnc3[nH]2)cc1 [7-1] | – | > 500 nM |
| CCc1ccc(OCc2[nH]c3ncnn3c(=O)c2F)cc1 [7-2] | – | > 500 nM |

Next, values leading:

| FABP4 TdF Kd | Kd | SMILES |
| --- | --- | --- |
| – | > 500 nM | CCc1ccc(OCc2cc(=O)n3nc(C(F)(F)F)nc3[nH]2)cc1 [8-2] |
| – | > 500 nM | CCc1ccc(OCc2cc(=O)n3nc(C)nc3[nH]2)cc1 [8-3] |
| – | > 500 nM | CCc1ccc(OCc2cc(=O)n3nc(CC)nc3[nH]2)cc1 [8-4] |
| – | > 500 nM | CCc1ccc(OCc2cc(=O)n3nc(-c4cccnc4)nc3[nH]2)cc1 [8-5] |
| – | > 500 nM | CCc1ccc(OCc2cc(=O)n3nc(C4CCC4)nc3[nH]2)cc1 [8-6] |
| – | > 500 nM | CCc1ccc(OCc2cc(=O)n3nc(C(=O)OC)nc3[nH]2)cc1 [8-7] |
| – | > 500 nM | CCc1ccc(OCc2cc(=O)n3nc(CO)nc3[nH]2)cc1 [8-8] |
| – | > 500 nM | CCc1ccc(OCc2cc(=O)n3nc(COC(C)=O)nc3[nH]2)cc1 [8-9] |
| – | > 500 nM | CCc1ccc(OCc2cc(=O)n3nc(-c4ccncc4)nc3[nH]2)cc1 [8-10] |
| – | > 500 nM | CCc1ccc(OCc2cc(=O)n3nc(Cc4ccccc4)nc3[nH]2)cc1 [8-11] |
| – | > 500 nM | CCc1ccc(OCc2cc(=O)n3nc(C4CC4)nc3[nH]2)cc1 [8-12] |
| B (0.5 ≦ B < 0.001 μM) | – | Cc1c(Cl)cccc1OCc1cc(=O)n2nc(-c3cccs3)nc2[nH]1 [8-13] |
| – | > 500 nM | Cc1c(Cl)cccc1OCc1cc(=O)n2nc(-c3ccccn3)cc2[nH]1 [8-14] |
| – | > 500 nM | CCc1ccc(OCc2cc(=O)n3nc(C(=O)O)nc3[nH]2)cc1 [9-1] |
| – | > 500 nM | CCc1ccc(NCc2cc(=O)n3nc(-c4ccccc4)cc3[nH]2)cc1 [10-1] |
| – | > 500 nM | Cc1c(Cl)cccc1NCc1cc(=O)n2nc(-c3ccccc3)cc2[nH]1 [10-2] |
| – | > 500 nM | Cc1c(Cl)cccc1NC(=O)c1cc(=O)n2nc(-c3ccccc3)nc2[nH]1 [11-3] |
| – | > 500 nM | Cc1c(Cl)cccc1N(C)C(=O)c1cc(=O)n2nc(-c3ccccc3)nc2[nH]1 [11-4] |
| B (0.5 ≦ B < 0.001 μM) | – | CCc1ccc(SCc2cc(=O)n3nc(-c4ccccc4)nc3[nH]2)cc1 [12-1] |
| – | > 500 nM | CCc1ccc(S(=O)(=O)Cc2cc(=O)n3nc(-c4ccccc4)nc3[nH]2)cc1 [12-2] |
| – | > 500 nM | Cc1c(Cl)cccc1NCc1[nH]c2ncnn2c(=O)c1Cl [13-2] |
| – | > 500 nM | CCc1ccc(CCc2cc(=O)n3nc(-c4ccccc4)nc3[nH]2)cc1 [14-3] |
| – | > 500 nM | CCc1ccc(OCc2[nH]c3nc(-c4ccccc4)nn3c(=O)c2C)cc1 [15-3] |

| FABP4 TdF Kd | Kd | SMILES |
| --- | --- | --- |
| B (0.5 ≦ B < 0.001 μM) | – | Cc1c(Cl)cccc1SCc1cc(=O)n2nc(-c3ccccc3)nc2[nH]1 [16-2] |
| – | > 500 nM | Cc1c(Cl)cccc1N(Cc1cc(=O)n2nc(-c3ccccc3)nc2[nH]1)C1CC1 [17-2] |
| B (0.5 ≦ B < 0.001 μM) | – | O=c1cc(CN(c2cccc(Cl)c2)C2CC2)[nH]c2nc(-c3ccccc3)nn12 [17-3] |
| B (0.5 ≦ B < 0.001 μM) | – | CN(Cc1cc(=O)n2nc(-c3ccccc3)nc2[nH]1)c1cccc(Cl)c1C1CC1 [18-3] |
| B (0.5 ≦ B < 0.001 μM) | – | CNc1cccc(N(C)Cc2cc(=O)n3nc(-c4ccccc4)nc3[nH]2)c1C1CC1 [19-2] |
| B (0.5 ≦ B < 0.001 μM) | – | CCc1c(Cl)cccc1OCc1cc(=O)n2nc(-c3ccccc3)nc2[nH]1 [21-3] |
| B (0.5 ≦ B < 0.001 μM) | – | COCc1c(Cl)cccc1OCc1cc(=O)n2nc(-c3ccccc3)nc2[nH]1 [22-2] |
| B (0.5 ≦ B < 0.001 μM) | – | O=c1c(Br)c(COc2cccc(Cl)c2C2CC2)[nH]c2nc(-c3ccccc3)nn12 [23-1] |
| B (0.5 ≦ B < 0.001 μM) | – | CC1(C)CCCC(OCc2[nH]c3nc(-c4ccccc4)nn3c(=O)c2Cl)C1 (stereo not drawn) [24-2] |
| B (0.5 ≦ B < 0.001 μM) | – | O=c1c(Cl)c(COc2csc(C(F)(F)F)c2)[nH]c2nc(-c3ccccc3)nn12 [24-3] |
| B (0.5 ≦ B < 0.001 μM) | – | O=c1c(Cl)c(CN2CCOc3c(Br)cccc32)[nH]c2nc(-c3ccccc3)nn12 [24-4] |
| – | > 500 nM | O=c1c(Cl)c(CN2CCCC2Cc2cccc(Cl)c2)[nH]c2nc(-c3ccccc3)nn12 (stereo not drawn) [24-5] |
| – | > 500 nM | O=c1c(Cl)c(CN2CCCC2Cc2ccncn2)[nH]c2nc(-c3ccccc3)nn12 (stereo not drawn) [24-6] |
| B (0.5 ≦ B < 0.001 μM) | – | O=c1c(Cl)c(COCC2(c3cccc(C(F)(F)F)c3)CC2)[nH]c2nc(-c3ccccc3)nn12 [24-7] |
| B (0.5 ≦ B < 0.001 μM) | – | O=C(NCC1(c2ccccc2Cl)CC1)c1ccccc1OCc1[nH]c2nc(-c3ccccc3)nn2c(=O)c1Cl [24-8] |
| B (0.5 ≦ B < 0.001 μM) | – | O=C(NCC1(CO)CCCC1)c1ccccc1OCc1[nH]c2nc(-c3ccccc3)nn2c(=O)c1Cl [24-9] |
| – | > 500 nM | O=C(NCC1(CO)CCC1)c1ccccc1OCc1[nH]c2nc(-c3ccccc3)nn2c(=O)c1Cl [24-10] |
| – | > 500 nM | CC1(NC(=O)c2ccccc2OCc2[nH]c3nc(-c4ccccc4)nn3c(=O)c2Cl)COC1 [24-11] |
| B (0.5 ≦ B < 0.001 μM) | – | CN(C(=O)c1ccccc1OCc1[nH]c2nc(-c3ccccc3)nn2c(=O)c1Cl)C1CCCCC1 [24-12] |
| B (0.5 ≦ B < 0.001 μM) | – | O=C(NC1CCCCC1)c1ccccc1OCc1[nH]c2nc(-c3ccccc3)nn2c(=O)c1Cl [24-13] |
| B (0.5 ≦ B < 0.001 μM) | – | O=C(NCCC1CC1)c1ccccc1OCc1[nH]c2nc(-c3ccccc3)nn2c(=O)c1Cl [24-14] |
| B (0.5 ≦ B < 0.001 μM) | – | O=C(NCC1CC1)c1ccccc1OCc1[nH]c2nc(-c3ccccc3)nn2c(=O)c1Cl [24-15] |
| B (0.5 ≦ B < 0.001 μM) | – | O=C(NCC1(CO)CC1)c1ccccc1OCc1[nH]c2nc(-c3ccccc3)nn2c(=O)c1Cl [24-16] |
